Assay results taken from US10206394B2, “Herbicidal compounds” (Syngenta Participations AG, priority 2014, dated 2019).
Read-outs that look alike come from different tables or passages of the source.

What was measured:
Test in all cases: Glasshouse assay for herbicidal activity (pre- and post-emergence), percentage phytotoxicity
Type in all cases: in vivo
[1] = tested on: Avena fatua (AVEFA); conditions: Avena fatua
Method in brief: (§1)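 Visual phytotoxicity score, 0% = undamaged to 100% = total kill, read 20 days after treatment for PRE and 15 days for POST. Pots of standard soil; treatment at day 1 (PRE) or roughly day 12 (POST). Glasshouse: 16 h photoperiod, 65% RH, 24/18 or 20/16 °C by climate type.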

[2] = tested on: Echinochloa crus-galli (ECHCG); conditions: Echinochloa crus-galli
Method in brief: as §1

[3] = tested on: Lolium perenne (LOLPE); conditions: Lolium perenne
Method in brief: as §1

[4] = tested on: Alopecurus myosuroides (ALOMY); conditions: Alopecurus myosuroides
Method in brief: as §1

[5] = post-emergence, 360 h, POST-emergence, rate 250 g/ha, visual score 15 DAA (100%=total damage, 0%=no damage), read-out: Post-emergence herbicidal activity (percentage phytotoxicity) AVEFA POST
[6] = pre-emergence, 480 h, PRE-emergence, rate 250 g/ha, visual score 20 DAA (100%=total damage, 0%=no damage), read-out: Pre-emergence herbicidal activity (percentage phytotoxicity) AVEFA PRE
[7] = post-emergence, 360 h, POST-emergence, rate 250 g/ha, visual score 15 DAA (100%=total damage, 0%=no damage), read-out: Post-emergence herbicidal activity (percentage phytotoxicity) ECHCG POST
[8] = pre-emergence, 480 h, PRE-emergence, rate 250 g/ha, visual score 20 DAA (100%=total damage, 0%=no damage), read-out: Pre-emergence herbicidal activity (percentage phytotoxicity) ECHCG PRE
[9] = post-emergence, 360 h, POST-emergence, rate 250 g/ha, visual score 15 DAA (100%=total damage, 0%=no damage), read-out: Post-emergence herbicidal activity (percentage phytotoxicity) LOLPE POST
[10] = pre-emergence, 480 h, PRE-emergence, rate 250 g/ha, visual score 20 DAA (100%=total damage, 0%=no damage), read-out: Pre-emergence herbicidal activity (percentage phytotoxicity) LOLPE PRE
[11] = post-emergence, 360 h, POST-emergence, rate 250 g/ha, visual score 15 DAA (100%=total damage, 0%=no damage), read-out: Post-emergence herbicidal activity (percentage phytotoxicity) ALOMY POST
[12] = pre-emergence, 480 h, PRE-emergence, rate 250 g/ha, visual score 20 DAA (100%=total damage, 0%=no damage), read-out: Pre-emergence herbicidal activity (percentage phytotoxicity) ALOMY PRE

Cc1cc(-c2cc(Cl)ccn2)cc(C)c1C1C(=O)CC(CC(=O)NCc2cccc(C(F)(F)F)c2)C1=O (stereo not shown) [Compound A154]
pest or weed control at 250 g/ha ([1]; post-emergence, 360 h, Rate 250 g/ha, post-emergence, assessed visually 15 DAA, 100%=total damage, 0%=no damage, read-out: Post-emergence herbicidal activity (percentage phytotoxicity) AVEFA POST): 90% | pest or weed control at 250 g/ha ([1]; pre-emergence, 480 h, Rate 250 g/ha, pre-emergence, assessed visually 20 DAA, 100%=total damage, 0%=no damage, read-out: Pre-emergence herbicidal activity (percentage phytotoxicity) AVEFA PRE): 60% | pest or weed control at 250 g/ha ([2]; post-emergence, 360 h, Rate 250 g/ha, post-emergence, assessed visually 15 DAA, 100%=total damage, 0%=no damage, read-out: Post-emergence herbicidal activity (percentage phytotoxicity) ECHCG POST): 100% | pest or weed control at 250 g/ha ([2]; pre-emergence, 480 h, Rate 250 g/ha, pre-emergence, assessed visually 20 DAA, 100%=total damage, 0%=no damage, read-out: Pre-emergence herbicidal activity (percentage phytotoxicity) ECHCG PRE): 80% | pest or weed control at 250 g/ha ([3]; post-emergence, 360 h, Rate 250 g/ha, post-emergence, assessed visually 15 DAA, 100%=total damage, 0%=no damage, read-out: Post-emergence herbicidal activity (percentage phytotoxicity) LOLPE POST): 70% | pest or weed control at 250 g/ha ([3]; pre-emergence, 480 h, Rate 250 g/ha, pre-emergence, assessed visually 20 DAA, 100%=total damage, 0%=no damage, read-out: Pre-emergence herbicidal activity (percentage phytotoxicity) LOLPE PRE): 80% | pest or weed control at 250 g/ha ([4]; post-emergence, 360 h, Rate 250 g/ha, post-emergence, assessed visually 15 DAA, 100%=total damage, 0%=no damage, read-out: Post-emergence herbicidal activity (percentage phytotoxicity) ALOMY POST): 80% | pest or weed control at 250 g/ha ([4]; pre-emergence, 480 h, Rate 250 g/ha, pre-emergence, assessed visually 20 DAA, 100%=total damage, 0%=no damage, read-out: Pre-emergence herbicidal activity (percentage phytotoxicity) ALOMY PRE): 50%

C#CC(C)N(C)C(=O)CC1CC(=O)C(c2c(C)cc(C)cc2C)C1=O (single isomer, unassigned) [Compound A183]
pest or weed control at 250 g/ha ([1]; post-emergence, 360 h, post-emergence, 250 g/ha, 15 DAA, visual score (100%=total damage; 0%=no damage), read-out: AVEFA POST herbicidal activity (percentage phytotoxicity)): 70% | pest or weed control at 250 g/ha ([1]; pre-emergence, 480 h, pre-emergence, 250 g/ha, 20 DAA, visual score (100%=total damage; 0%=no damage), read-out: AVEFA PRE herbicidal activity (percentage phytotoxicity)): 0% | pest or weed control at 250 g/ha ([2]; post-emergence, 360 h, post-emergence, 250 g/ha, 15 DAA, visual score (100%=total damage; 0%=no damage), read-out: ECHCG POST herbicidal activity (percentage phytotoxicity)): 80% | pest or weed control at 250 g/ha ([2]; pre-emergence, 480 h, pre-emergence, 250 g/ha, 20 DAA, visual score (100%=total damage; 0%=no damage), read-out: ECHCG PRE herbicidal activity (percentage phytotoxicity)): 80% | pest or weed control at 250 g/ha ([3]; post-emergence, 360 h, post-emergence, 250 g/ha, 15 DAA, visual score (100%=total damage; 0%=no damage), read-out: LOLPE POST herbicidal activity (percentage phytotoxicity)): 70% | pest or weed control at 250 g/ha ([3]; pre-emergence, 480 h, pre-emergence, 250 g/ha, 20 DAA, visual score (100%=total damage; 0%=no damage), read-out: LOLPE PRE herbicidal activity (percentage phytotoxicity)): 90% | pest or weed control at 250 g/ha ([4]; post-emergence, 360 h, post-emergence, 250 g/ha, 15 DAA, visual score (100%=total damage; 0%=no damage), read-out: ALOMY POST herbicidal activity (percentage phytotoxicity)): 70% | pest or weed control at 250 g/ha ([4]; pre-emergence, 480 h, pre-emergence, 250 g/ha, 20 DAA, visual score (100%=total damage; 0%=no damage), read-out: ALOMY PRE herbicidal activity (percentage phytotoxicity)): 50%

Cc1cc(-c2ncc(F)cc2F)cc(C)c1C1C(=O)CC(CC(=O)N(C)C(C)(C)C)C1=O (stereo not shown) [Compound B267]
pest or weed control at 250 g/ha [1, 5]: 100% | pest or weed control at 250 g/ha [1, 6]: 80% | pest or weed control at 250 g/ha [2, 7]: 100% | pest or weed control at 250 g/ha [2, 8]: 100% | pest or weed control at 250 g/ha [3, 9]: 100% | pest or weed control at 250 g/ha [3, 10]: 100% | pest or weed control at 250 g/ha [4, 11]: 100% | pest or weed control at 250 g/ha [4, 12]: 100%

Cc1cc(-c2ccc(F)cn2)cc(C)c1C1C(=O)CC(CC(=O)N(C)C(C)(C)C)C1=O (stereo not shown) [Compound B393]
pest or weed control at 250 g/ha ([1]; post-emergence, 360 h, Rate 250 g/ha, post-emergence, visual assessment 15 DAA, 100%=total damage, 0%=no damage, read-out: Post-emergence herbicidal activity (percentage phytotoxicity) AVEFA POST): 100% | pest or weed control at 250 g/ha ([1]; pre-emergence, 480 h, Rate 250 g/ha, pre-emergence, visual assessment 20 DAA, 100%=total damage, 0%=no damage, read-out: Pre-emergence herbicidal activity (percentage phytotoxicity) AVEFA PRE): 90% | pest or weed control at 250 g/ha ([2]; post-emergence, 360 h, Rate 250 g/ha, post-emergence, visual assessment 15 DAA, 100%=total damage, 0%=no damage, read-out: Post-emergence herbicidal activity (percentage phytotoxicity) ECHCG POST): 100% | pest or weed control at 250 g/ha ([2]; pre-emergence, 480 h, Rate 250 g/ha, pre-emergence, visual assessment 20 DAA, 100%=total damage, 0%=no damage, read-out: Pre-emergence herbicidal activity (percentage phytotoxicity) ECHCG PRE): 100% | pest or weed control at 250 g/ha ([3]; post-emergence, 360 h, Rate 250 g/ha, post-emergence, visual assessment 15 DAA, 100%=total damage, 0%=no damage, read-out: Post-emergence herbicidal activity (percentage phytotoxicity) LOLPE POST): 90% | pest or weed control at 250 g/ha ([3]; pre-emergence, 480 h, Rate 250 g/ha, pre-emergence, visual assessment 20 DAA, 100%=total damage, 0%=no damage, read-out: Pre-emergence herbicidal activity (percentage phytotoxicity) LOLPE PRE): 100% | pest or weed control at 250 g/ha ([4]; post-emergence, 360 h, Rate 250 g/ha, post-emergence, visual assessment 15 DAA, 100%=total damage, 0%=no damage, read-out: Post-emergence herbicidal activity (percentage phytotoxicity) ALOMY POST): 90% | pest or weed control at 250 g/ha ([4]; pre-emergence, 480 h, Rate 250 g/ha, pre-emergence, visual assessment 20 DAA, 100%=total damage, 0%=no damage, read-out: Pre-emergence herbicidal activity (percentage phytotoxicity) ALOMY PRE): 100%

CCc1cc(C)cc(C)c1C1C(=O)CC(CC(=O)NCc2cccc(F)c2)C1=O (stereo not shown) [Compound B252]
pest or weed control at 250 g/ha [1, 5]: 90% | pest or weed control at 250 g/ha [1, 6]: 70% | pest or weed control at 250 g/ha [2, 7]: 100% | pest or weed control at 250 g/ha [2, 8]: 100% | pest or weed control at 250 g/ha [3, 9]: 100% | pest or weed control at 250 g/ha [3, 10]: 100% | pest or weed control at 250 g/ha [4, 11]: 100% | pest or weed control at 250 g/ha [4, 12]: 100%
